Results as given in patent publication US20140336218A1, “ARFORMOTEROL AND TIOTROPIUM COMPOSITIONS AND METHODS FOR USE” (priority 2008, published 2014).

What was measured:
COPD patients [1] = experiment: Transition Dyspnea Index (TDI) in 2-week clinical trial; type: in vivo, human; conditions: for Patients with change ≧1 unit (TDI), n (%) / TDI, mean (SD) / Patients with change of ≧1 unit (TDI), n (%) / Difference between combined therapy and mono-therapies in TDI, LS mean / Patients with change of ≧1 unit (TDI), %: week 2; for Patients with change of ≧1 unit (TDI), %: cells print n (%); for improvement in TDI: patients with <50% predicted FEV1 at baseline
Experimental: (§1) This was a 2-week, prospective, multi-center (34 sites), randomized, modified blind, double dummy, parallel group study designed to evaluate the efficacy and safety of the combination of arformoterol 15 μg BID and tiotropium 18 μg QD (dosed sequentially) versus the individual mono-therapies in the treatment of COPD patients. The study was conducted according to the principles established by the Declaration of Helsinki (see, e.g., World Medical Association Declaration of Helsinki. Recommendations guiding physicians in biomedical research involving human subjects. JAMA 1997; 277:925-926.). Appropriate Institutional Review boards approved the protocol and written informed consent was obtained from the patients.
(§2) Eligible patients were randomized to receive one of three treatments for 14 days: nebulized arformoterol 15 μg (Brovana®, Sepracor Inc., Marlborough, Mass.) BID and placebo DPI QD, nebulized placebo BID and tiotropium 18 μg (Spriva® HandiHaler® Boehringer Ingelheim, Ridgefield, Conn.) DPI QD, or nebulized arformoterol 15 μg BID and tiotropium 18 μg DPI QD. The nebulized drug was administered first using the PARI LC Plus® nebulizer driven by the Duraneb 3000® compressor (Pari: Pari Respiratory Equipment Inc., Midlothian, Va.) at a flow rate of 3.3 L/minute followed (within 5 minutes) by the DPI administration (HandiHaler®). The tiotropium and placebo DPI capsules were identical in size and shape but differed in color.
At screening, the Baseline Dyspnea Index (BDI) (see, e.g., Mahler D A, Weinberg D H, Wells C K, Feinstein A R. The measurement of dyspnea. Contents, interobserver agreement, and physiologic correlates of two new clinical indexes. Chest 1984; 85:751-758; herein incorporated in its entirety by reference) was assessed prior to the first clinic dose, and at week 2 the Transition Dyspnea Index (see id.) was evaluated before first morning dose. The baseline focal score (range 0 to 12) and the transition focal score (range −9 to 9) were the sums of the functional impairment, magnitude of task, and magnitude of effort scores (see id.). Higher scores indicate less dyspnea at baseline (BDI) or greater improvement in dyspnea from baseline (TDI).
The study was designed to detect a mean treatment difference of time normalized FEV1AUC over 24 hours (FEV1AUC0-24) (the primary endpoint) of 0.075 L with a standard deviation of 0.016 L when comparing combined therapy with mono-therapy, using a two-sided 5% significance level, following 2-weeks of dosing for the primary comparison with 80% power. All efficacy analyses were performed on the ITT population. All statistical testing was 2-tailed and conducted at the 5% significance level, unless otherwise indicated. […] To control for multiple comparisons, statistical tests of mean treatment group differences were considered significant if the overall treatment effect in the model was statistically significant at the 5% level. Pulmonary function severity subgroup analysis was performed post hoc by stratifying patients according to the GOLD COPD guidelines (see, e.g., Pauwels R A, Buist A S, Calverley P M, Jenkins C R, Hurd S S. Global strategy for the diagnosis, management, and prevention of chronic obstructive pulmonary disease. NHLBI/WHO Global Initiative for Chronic Obstructive Lung Disease (GOLD) Workshop summary. Am J Respir Crit Care Med 2001; 163:1256-1276;; herein incorporated in its entirety by reference) (<30%, ≧30% to <50%, and ≧50%, respectively). Pairwise comparisons between treatment groups were performed using least square means (LS means) from the linear model with the study baseline (or predose where applicable) as a covariate and the treatment group as a fixed effect.

COPD patients [2] = experiment: Inspiratory capacity in 2-week clinical trial; type: in vivo, human; conditions: for Mean (SD) inspiratory capacity improvement from baseline: 2-hours post-dosing; for Difference in trough FEV1 between combined therapy and mono-therapies, LS mean / Change in trough inspiratory capacity, mean (SD): ITT; for Difference in trough FEV1 between combined therapy and mono-therapies, LS mean / Change in trough inspiratory capacity, mean (SD) / Difference between combined therapy and mono-therapies in change in inspiratory capacity, LS mean: week 2; for Difference in trough FEV1 between combined therapy and mono-therapies, LS mean: printed below the trough inspiratory capacity line, combined therapy versus the mono-therapy; for Change in trough inspiratory capacity, mean (SD): trough = 24 hour time point after morning dose; for Difference between combined therapy and mono-therapies in change in inspiratory capacity, LS mean: combined versus the mono-therapy; for Change in Inspiratory Capacity, mean (SD): week 2 from study baseline
Experimental: as §1, §2
At week 0 and week 2, medical event calendars and blood samples were collected and vital signs and heart measurements analyzed. At week 0, spirometry was performed pre-morning dose, immediately (within 5 minutes) and at 30 minutes, 1, 2, 4, 6, 8, 10, and 12 hours post-first dose. After the 12-hour pulmonary function test patients self-administered the evening dose of study medication. At week 2, serial spirometry was also performed as at week 0, as well as immediately (within 5 minutes) following the evening dose (administered 12 hours after the morning dose) and 12.5, 13, 14, 16, 23, and 24 hours post-morning dose. Inspiratory capacity was evaluated pre-dose and at 2 hours post-morning dose at week 0, and pre-dose and 2, 11, 14, and 24 hours post-morning dose at week 2. All inspiratory capacity measurements were the mean of acceptable inspiratory capacity maneuvers, two of which were reproducible. Prior to an inspiratory capacity maneuver a patient had to have a stable expiratory level for about 10 breaths. Once the stable level was achieved, at the end of exhalation of a normal breath the patient was asked to make a steady and full inhalation at normal inspiratory flow rates until the lungs were completely full, and then to exhale at a normal rate.
All pulmonary function values used were the highest among the three acceptable maneuvers. The Investigator ensured that all spirometry was performed in accordance with the American Thoracic Society/European Respiratory Society Standardisation of Spirometry guidelines (see, e.g., Miller M R, Hankinson J, Brusasco V, Burgos F, Casaburi R, Coates A, et al. Standardisation of spirometry. Eur Respir J 2005; 26:319-338; herein incorporated in its entirety by reference). Centralized over-reading of spirometry and inspiratory capacity pulmonary function measures were used for quality control.
The study was designed to detect a mean treatment difference of time normalized FEV1AUC over 24 hours (FEV1AUC0-24) (the primary endpoint) of 0.075 L with a standard deviation of 0.016 L when comparing combined therapy with mono-therapy, using a two-sided 5% significance level, following 2-weeks of dosing for the primary comparison with 80% power. All efficacy analyses were performed on the ITT population. All statistical testing was 2-tailed and conducted at the 5% significance level, unless otherwise indicated.

COPD patients [3] = experiment: Adverse events in 2-week clinical trial; conditions: for Any adverse event, n (%) / COPD exacerbations / Discontinued due to adverse events, n (%) / Overall cardiovascular adverse events, n (%) / Serious adverse events, n (%): ITT, 2 weeks of treatment
Experimental: as §1, §2
Descriptive statistics were calculated by treatment for baseline characteristics and each efficacy parameter. Adverse events were summarized using counts and percentages. All adverse events were coded using MedDRA (Medical Dictionary for Regulatory Activities (see, e.g., MedDRA and MSSO. The medical dictionary for regulatory activities 2008). A COPD exacerbation was pre-defined as an increase in symptoms that necessitated any change in baseline medication other than bronchodilators (e.g. anti-inflammatory agents, antibiotics, supplemental oxygen therapy, etc.) or caused the patient to require additional medical attention (hospitalization, emergency room visit, etc.).

[4] = ITT, transition focal score range −9 to 9
[5] = baseline percent predicted FEV1 <50%
[6] = baseline percent predicted FEV1 <50%, combined versus the mono-therapy
[7] = baseline percent predicted FEV1 ≧50%
[8] = baseline percent predicted FEV1 ≧50%, combined versus the mono-therapy

| Structure (SMILES) | Patients with change ≧1 unit (TDI), n (%) (COPD patients [1]; ITT) | TDI, mean (SD) (COPD patients [1]; [4]) | Patients with change of ≧1 unit (TDI), n (%) (COPD patients [1]; [5]) | TDI, mean (SD) (COPD patients [1]; [5]) | Difference between combined therapy and mono-therapies in TDI, LS mean (COPD patients [1]; [6]) | TDI, mean (SD) (COPD patients [1]; [7]) | Patients with change of ≧1 unit (TDI), % (COPD patients [1]; [7]) | Difference between combined therapy and mono-therapies in TDI, LS mean (COPD patients [1]; [8]) | improvement in TDI (COPD patients [1]) [units] | Mean (SD) inspiratory capacity improvement from baseline (COPD patients [2]) [L] | Difference in trough FEV1 between combined therapy and mono-therapies, LS mean (COPD patients [2]) [L] | Change in trough inspiratory capacity, mean (SD) (COPD patients [2]) | Difference between combined therapy and mono-therapies in change in inspiratory capacity, LS mean (COPD patients [2]; [5]) [L] | Change in Inspiratory Capacity, mean (SD) (COPD patients [2]; [5]) | Difference between combined therapy and mono-therapies in change in inspiratory capacity, LS mean (COPD patients [2]; [7]) [L] | Change in Inspiratory Capacity, mean (SD) (COPD patients [2]; [7]) | Any adverse event, n (%) (COPD patients [3]) | COPD exacerbations (COPD patients [3]) | Discontinued due to adverse events, n (%) (COPD patients [3]) | Overall cardiovascular adverse events, n (%) (COPD patients [3]) | further results |
| --- | --- | --- | --- | --- | --- | --- | --- | --- | --- | --- | --- | --- | --- | --- | --- | --- | --- | --- | --- | --- | --- |
| COc1ccc(C[C@@H](C)NC[C@H](O)c2ccc(O)c(NC=O)c2)cc1 [Arformoterol] | 50 (66.7) n (%) | 2.3 (2.4) | 34 (72.3) n (%) | 2.3 (2.3) | 1.3 | 2.3 (2.6) | 17 (57.1) % | 0.2 | 2.3 | 0.20 | 0.07 | 0.07 (0.30) L | 0.08 | 0.12 (0.31) L | 0.06 | −0.01 (0.27) L | 19 (25.0) n (%) | 3 (3.9) n (%) | 2 (2.6) n (%) | 2 (2.6) n (%) | Serious adverse events, n (%) (COPD patients [3]): 1 (1.3) n (%); patients reporting a serious adverse event (COPD patients [3]; small intestinal obstruction): one |
| C[N+]1(C)[C@@H]2C[C@@H](OC(=O)C(O)(c3cccs3)c3cccs3)C[C@H]1[C@@H]1O[C@@H]12 [Tiotropium] | 44 (57.1) n (%) | 1.8 (2.8) | 25 (52.1) n (%) | 1.6 (3.0) | 2.0 | 2.3 (2.5) | 19 (67.9) % | 0.3 | 1.6 | 0.19 | 0.12 | 0.02 (0.29) L | 0.17 | 0.02 (0.27) L | 0.02 | 0.04 (0.33) L | 22 (27.5) n (%) | 0 n (%) | 1 (1.3) n (%) | 1 (1.3) n (%) | Difference between combined therapy and mono-therapies in TDI, LS mean (COPD patients [1]; ITT, combined therapy versus the mono-therapy): 1.3 L; Serious adverse events, n (%) (COPD patients [3]): 0 n (%) |
